Experimental data from US20240350494A1, “THERAPEUTIC MODULATION OF INTEGRINS” (Pliant Therapeutics, Inc., priority 2021, published 2024).

Columns and labels:
[1] = tested on: Type I Collagen gene Col1a1 expression; test: Precision cut lung slices, acute bleomycin exposure, Col1a1 expression; type: cell-based, mice (C57BL/6); details: for Type I Collagen gene Col1a1 expression, normalized to DMSO control slices: 3 days culture, integrin inhibitors at IC50 for TGF-beta activation, pan-αV and ALK5 inhibitors at 10× reported IC50, FIG. 3A
Description: Mice (C57BL/6) were administered 3 U/kg of bleomycin (Teva Pharmaceuticals; North Wales, PA) on day 0 via oropharyngeal aspiration while under anesthesia. On day 14, precision cut lung slices were obtained. Following euthanization, 2% low gelling temp agarose was injected into the mouse lungs via the trachea. […] The lobes were then subjected to precision slicing to obtain samples for culture using a microtome (Compresstome VF-300-OZ, Precisionary; Greenville, NC). Individual slices were distributed in a multiwell culture plate and cultured for 3 days under control (DMSO) and test compound conditions.

COL1A1 expression = test: Precision cut lung slices from human IPF explants, COL1A1 expression; type: cell-based; details: for COL1A1 expression, treatment alone: PCLS from 5-7 IPF samples, seven days, nintedanib 75 nM, pirfenidone 50 μm
Excerpt: Explanted lung tissue was obtained from human IPF subjects and inflated with agarose as described in the preceding examples. Biopsy cores were obtained from the agarose-inflated lung tissue. The biopsy cores were subjected to precision slicing to obtain several hundred μm thick. Individual slices were distributed in a multiwell culture plate and cultured for […] under control (DMSO) and test compound conditions. The viability of the slices over the course of culturing was confirmed by WST-1 assay of mitochondrial activity.
PCLS from 5-7 idopathic pulmonary fibrosis (IPF) lung tissue samples were cultured for seven days with one of: DMSO; Compound 5 at 200 nM; nintedanib at 75 nM; pirfenidone at 50 μm; a combination of Compound 5 at 200 nM and nintedanib at 75 nM; a combination of Compound 5 at 200 nM and pirfenidone at 50 μm; or an Alk5 inhibitor at 1 μm. […] FIG. 4D is a bar graph showing relative expression of COL1A1 in precision cut lung slices (PCLS) from idopathic pulmonary fibrosis (IPF) lung tissue upon exposure to Compound 5, clinical standard of care compounds nintedanib (Nin) and pirfenidone (Pirf), and an ALK5 inhibitor, all versus DMSO control.
PCLS from a single IPF lung tissue sample were cultured for seven days with Compound 5 at concentrations of 200 μM, 2 nM, 60 nM, 200 nM, and 1 μM, along with 0.1% DMSO control and an Alk5 inhibitor at 1 μM. […] COL1A1 expression is also graphed for the PCLS in the presence of 0.1% DMSO control, and an Alk5 inhibitor at 1 μM.

lung Col1a1 expression = test: Precision cut lung slices, chronic bleomycin exposure, Col1a1 expression; type: cell-based, mice (C57BL/6); details: 7 days culture, ALK5 inhibitor at 10× IC50; for lung slice Col1a1 expression compared to DMSO vehicle control slices: nintedanib and pirfenidone at 10× therapeutic concentrations, FIG. 4A
Description: (§1) Mice (C57BL/6) were administered 3 U/kg of bleomycin (Teva Pharmaceuticals; North Wales, PA) on Day 0 and 1 U/kg of bleomycin on days 14, 28, 42 and 56 via oropharyngeal aspiration while under anesthesia. At day 70, 14 days after the final bleomycin insult, precision cut lung slices were obtained. Following euthanization, 2% low gelling temp agarose was injected into the mouse lungs via the trachea. […] The lobes were then subjected to precision slicing to obtain samples for culture using a microtome (Compresstome VF-300-OZ, Precisionary; Greenville, NC). Individual slices were distributed in a multiwell culture plate and cultured for 7 days under control (DMSO) and test compound conditions. The viability of the slices over the course of culturing was confirmed by WST-1 assay of mitochondrial activity.
During the culture period, slices in the control group were treated with DMSO and slices in the test group were treated with a DMSO solution of one of: the selective antibody αVβ6 inhibitor 3G9; the αVβ1-selective small molecule inhibitor; a combination of the selective antibody αVβ6 inhibitor 3G9 and the αVβ1-selective small molecule inhibitor; compound 5; and the small molecule ALK5 inhibitor. The selective αVβ1 and αVβ6 integrin inhibitors were analyzed at ≥their respective IC90 concentrations for inhibition of TGF-beta activation. Compound 5 was run at approximate IC50 for inhibition of TGF-beta activation by αVβ6.
as §1, with “following” for “after”
During the culture period, slices in the control group were treated with DMSO and slices in the test group were treated with a DMSO solution of one of: compound 5; nintedanib; pirfenidone; a combination of nintedanib and compound 5; a combination of pirfenidone and compound 5; or the small molecule ALK5 inhibitor. Compound 5 was […] effective to equal or exceed its respective IC50 values at αVβ6 and αVβ1. […] Nintendanib and pirfenidone were analyzed at concentrations 10× their reported therapeutic concentrations.

CC(C)(C)c1cc(Br)cc([C@H](CC(=O)O)NC(=O)CNC(=O)c2cc(O)cc(NC3=NCC(O)CN3)c2)c1 (stereo partly drawn) [second pan-αV small molecule inhibitor, (3S)—N-[3-hydroxy-5-[(1,4,5,6-tetrahydro-5-hydroxy-2-pyrimidinyl)amino]benzoyl]glycyl-3-[3-bromo-5-(1,1-dimethylethyl)phenyl]-β-alanine]
Type I Collagen gene Col1a1 expression, normalized to DMSO control slices [1]: decreased Type I Collagen gene Col1a1 expression comparably

COC(=O)c1ccc2c(c1)NC(=O)/C2=C(\Nc1ccc(N(C)C(=O)CN2CCN(C)CC2)cc1)c1ccccc1 [nintedanib]
COL1A1 expression, treatment alone (COL1A1 expression): did not significantly reduce | lung slice Col1a1 expression compared to DMSO vehicle control slices (lung Col1a1 expression): slight increase | increase in concentration over compound 5 needed to reduce lung slice Col1a1 expression by 50% ([1]; acute bleomycin injured lung slices, FIG. 4B): 5.2 fold

Cc1ccc(=O)n(-c2ccccc2)c1 [pirfenidone]
COL1A1 expression, treatment alone (COL1A1 expression): did not significantly reduce | lung slice Col1a1 expression compared to DMSO vehicle control slices (lung Col1a1 expression): slight increase

Cc1cccc(-c2n[nH]cc2-c2ccc(F)c(-c3cnn(CCO)c3)c2)n1 [small molecule ALK5 inhibitor, 4-[2-Fluoro-5-[3-(6-methyl-2-pyridinyl)-1H-pyrazol-4-yl]phenyl]-1H-pyrazole-1-ethanol]
lung Col1a1 expression, normalized to DMSO control slices (COL1A1 expression; human IPF slices, 3 days, 3G9 ≥400 ng/mL, compound 5 179 nM, ALK5 inhibitor 1 μM, FIG. 4C): substantial, statistically significant | lung Col1a1 expression, normalized to DMSO control slices (lung Col1a1 expression; Compound 5 at approximate IC50 (αVβ6), selective inhibitors at ≥IC90, FIG. 3B): greatest decrease | lung slice Col1a1 expression compared to DMSO vehicle control slices (lung Col1a1 expression): substantial, statistically significant (p<0.0001 vs vehicle) decrease | Type I Collagen gene Col1a1 expression, normalized to DMSO control slices [1]: greatest decrease
